Drawing on patent publication US20140336182A1, “Aurora Kinase Modulators and Method of Use” (Amgen Inc., priority 2013, published 2014), this text covers EC50 for 52 molecules.

For the first assay, the system named is HeLa cells. The experiment in a line: HeLa cell 24 hr ploidy assay (DNA content). Type of assay: cell-based. Conditions: Homo sapiens, HeLa, 4N ploidy, average, read-out: 24h_4NPloidy EC50_IP (uM Avg). The gist of the method: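 HeLa cells (1×10^4/well, MEM+10% FBS) cultured 24 h, treated with serially diluted compounds (0.25% DMSO final), then fixed, permeabilized and stained with Hoechst 33342 (0.5 ug/ml). Imaging quantified % 4N and >4N cells; EC50 IP and EC50 transit derived from dose curves.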
On to `COc1cnc2c(Oc3ccc(Nc4nnc(-c5cccc(C#N)c5)c5ccccc45)cc3)ccnc2c1` [Example 29, 3-(4-(4-(7-methoxy-1,5-naphthyridin-4-yloxy)phenylamino)phthalazin-1-yl)benzonitrile], for which the EC50 was 0.442 µM. The same measure, in the same setting: the result for `CCCc1cc(-c2ccccc2)nnc1Nc1ccc(Oc2ccnc3cc(OC)cnc23)cc1` [compound 156] reads 0.061 µM. Same read-out and setting: with `Cc1ccc(-c2nnc(Nc3ccc(Oc4ccnc5ccccc45)c(F)c3)c3ccccc23)cc1` [compound 161] the figure was 0.01 µM. Same read-out and setting: the result for `COc1cnc2c(Oc3ccc(Nc4nnc(-c5cc6ccccc6n5C)c5ccccc45)cc3)ccnc2c1` [compound 143, 4-(1-methyl-1H-indol-2-yl)-N-(4-((7-(methyloxy)-1,5-naphthyridin-4-yl)oxy)phenyl)-1-phthalazinamine] reads 0.094 µM; that for `COc1cnc2c(Oc3ccc(Nc4nnc(-c5ccc(C)s5)c5ccccc45)cc3)ccnc2c1` [compound 138], 0.03 µM; that for `COc1cnc2c(Oc3ccc(Nc4nnc(-c5ccc(OC(C)C)cc5)c5ccccc45)cc3)ccnc2c1` [compound 137], 0.85 µM. In the case of `COc1cc2nccc(Oc3ccc(Nc4nnc(-c5cccc(C)n5)c5ccccc45)cc3)c2cn1` [compound 110], the EC50 came out at 0.124 µM. The same measure, in the same setting: with `COc1cnc2c(Oc3ccc(Nc4nnc(-c5cccc(OC)n5)c5ccccc45)cc3)ccnc2c1` [compound 99] the figure was 0.023 µM; with `COCc1cccc(-c2nnc(Nc3ccc(Oc4ccnc5cc(OC)cnc45)cc3)c3ccccc23)n1` [compound 120], 0.305 µM; with `COc1cncc(-c2nnc(Nc3ccc(Oc4ccnc5cc(OC)cnc45)cc3)c3ccccc23)c1` [compound 129], 0.181 µM. Same read-out and setting: with `COc1cccc(-c2nnc(Nc3ccc(Oc4ccnc5cc(C#N)ccc45)cc3)c3ccccc23)n1` [compound 102] the figure was 0.028 µM.

The assay is the same for the next values; noted with them: Homo sapiens, HeLa, HeLa cells, 4N ploidy, average, read-out: 24h_4NPloidy EC50_IP (uM Avg).
Regarding `COc1cnc2c(Oc3ccc(Nc4nnc(-c5ccc(Cl)cc5)c5ccccc45)cc3OC)ccnc2c1` [compound 566], the EC50 worked out at 0.191 µM. Still for that read-out and setting: the result for `COc1ccc2nccc(Sc3ccc(Nc4nnc(-c5ccc(Cl)cc5)c5ccccc45)cc3)c2c1` [compound 315, 4-(4-chlorophenyl)-N-(4-(6-methoxyquinolin-4-ylthio)phenyl)phthalazin-1-amine] reads 0.014 µM; that for `COc1cnc2c(Sc3ccc(Nc4nnc(C5=CCNCC5)c5ccccc45)cc3)ccnc2c1` [Example 401, N-(4-(7-Methoxy-1,5-naphthyridin-4-ylthio)phenyl)-4-(1,2,3,6-tetrahydropyridin-4-yl)phthalazin-1-amine], 0.187 µM; that for `CCc1cc(-c2ccccc2)nnc1Nc1ccc(Sc2ccnc3cc(OC)cnc23)cc1` [compound 274, 4-ethyl-N-(4-(7-methoxy-1,5-naphthyridin-4-ylthio)phenyl)-6-phenylpyridazin-3-amine], 0.029 µM. For `COc1cnc2c(Sc3ccc(Nc4nnc(-c5ccn(C)c(=O)c5)c5ccccc45)cc3)ccnc2c1` [Example 396, 4-(4-(4-(7-Methoxy-1,5-naphthyridin-4-ylthio)phenylamino)phthalazin-1-yl)-1-methylpyridin-2(1 H)-one], the EC50 is 0.008 µM. Still for that read-out and setting: with `Cc1csc(-c2nnc(Nc3ccc(Oc4ccnc5cc(C#N)ccc45)cc3)c3ccccc23)c1` [compound 170] the figure was 0.007 µM.

Turning to `Cn1cc(-c2ccc3c(Oc4ccc(Nc5nnc(-c6ccccc6)c6ccccc56)cc4)ccnc3c2)cn1` [compound 338, N-(4-(7-(1-methyl-1H-pyrazol-4-yl)quinolin-4-yloxy)phenyl)-4-phenylphthalazin-1-amine], the EC50 stood at 0.005 µM. For `N#Cc1cc2nccc(Sc3ccc(Nc4nnc(-c5ccc(Cl)cc5)c5ccccc45)cc3)c2o1` [compound 489], the EC50 is 0.017 µM. The same measure, in the same setting: the result for `COc1cnc2c(Oc3ccc(Nc4nnc(-c5ccc(C)c(F)c5)c5ccccc45)cc3)ccnc2c1` [compound 243] reads 0.006 µM; that for `N#Cc1cc2nccc(Sc3ccc(Nc4nnc(-c5ccccc5)c5ccccc45)cc3)c2s1` [compound 458], 0.148 µM. Still for that read-out and setting: the result for `Clc1ccc(-c2nnc(Nc3ccc(Oc4ccnc5ccncc45)cc3)c3ccccc23)cc1` [compound 423] reads 0.031 µM. Still for that read-out and setting: the result for `COc1cc2nncc(Oc3ccc(Nc4nnc(-c5ccccc5)c5ccccc45)cc3)c2cc1OC` [compound 254] reads > 1.2 µM; that for `COc1cnc2c(Sc3ccc(Nc4nnc(N5CCN(C)CC5)c5ccccc45)cc3)ccnc2c1` [compound 503], 0.014 µM. Regarding `Brc1cnc2c(Oc3ccc(Nc4nnc(-c5ccccc5)c5ccccc45)cc3)ccnc2c1` [compound 245], the EC50 was found to be 0.381 µM.

On to `COc1cnc2c(Oc3ccc(Nc4nnc(-c5ccc(Cl)cc5)c5c4CCC5)cc3)ccnc2c1` [compound 411], for which the EC50 is > 1.2 µM. The same measure, in the same setting: with `COc1cnc2c(Oc3ccc(Nc4nnc(-c5ccc(C)c(N)c5)c5cc(F)c(F)cc45)cc3)ccnc2c1` [compound 545] the figure was 0.012 µM; with `COc1cnc2c(Oc3ccc(Nc4nnc(-c5ccc(OC)c(C)c5)c5ccccc45)cc3)ccnc2c1` [compound 213], 0.044 µM. On to `COc1cnc2c(Oc3ccc(Nc4nnc(C5CC5)c5ccccc45)cc3)ccnc2c1` [compound 543], for which the EC50 worked out at 0.281 µM. As to `COc1cnc2c(Oc3ccc(Nc4nnc(-c5ccc6[nH]ccc6c5)c5ccccc45)cc3)ccnc2c1` [compound 167], the EC50 was found to be 0.027 µM.

With `COc1cc(OC)c2c(Oc3ccc(Nc4nnc(-c5cc(C)cs5)c5ccccc45)cc3)ncnc2c1` [compound 573], the EC50 was 0.011 µM. For `COCc1cc(-c2ccccc2)nnc1Nc1ccc(Oc2ccnc3cc(OC)cnc23)cc1` [compound 593], the EC50 is > 1.2 µM.

On to `COCCCNc1nnc(Nc2ccc(Sc3ccnc4cc(OC)cnc34)cc2)c2ccccc12` [compound 535], for which the EC50 came to 0.026 µM. On the same count and under the same terms, with `COc1cnc2c(Oc3ccc(Nc4nnc(-c5ccc(F)cc5)c5ccccc45)cc3)ccnc2c1` [compound 220, 4-(4-fluorophenyl)-N-(4-((7-(methyloxy)-1,5-naphthyridin-4-yl)oxy)phenyl)-1-phthalazinamine] the figure was 0.036 µM; with `N#Cc1cnc2c(Oc3ccc(Nc4nnc(-c5ccc(Cl)cc5)c5ccccc45)cc3)ccnc2c1` [compound 265, 8-((4-((4-(4-chlorophenyl)-1-phthalazinyl)amino)phenyl)oxy)-1,5-naphthyridine-3-carbonitrile], 0.056 µM; with `COc1ccc2c(Oc3ccc(Nc4nnc(-c5ccccc5)c5c4CCC5)cc3)ccnc2c1` [compound 368], 0.021 µM. Same read-out and setting: with `Clc1ccc(-c2nnc(Nc3ccc(Sc4ccnc5cccnc45)cc3)c3ccccc23)nc1` [compound 493] the figure was 0.016 µM. The same measure, in the same setting: with `COc1cnc2c(Oc3ccc(Nc4nnc(-c5ccc(F)c(Cl)c5)c5ccccc45)cc3)ccnc2c1` [compound 193, 4-(3-chloro-4-fluorophenyl)-N-(4-((7-(methyloxy)-1,5-naphthyridin-4-yl)oxy)phenyl)-1-phthalazinamine] the figure was 0.027 µM; with `COc1cc2nccc(Oc3ccc(Nc4nnc(-c5ccccc5)c5ccccc45)cc3)c2cc1C(N)=O` [compound 225], 0.004 µM. With `COc1cnc2c(Oc3ccc(Nc4nnc(-c5ccc6c(ccn6C)c5)c5ccccc45)cc3)ccnc2c1` [compound 204, 4-(1-methyl-1H-indol-5-yl)-N-(4-((7-(methyloxy)-1,5-naphthyridin-4-yl)oxy)phenyl)-1-phthalazinamine], the EC50 amounted to 0.021 µM. As to `COc1cnc2c(N(C)c3ccc(Nc4nnc(-c5ccccc5)c5ccccc45)cc3)ccnc2c1` [compound 51, N-methyl-N-(7-(methyloxy)-1,5-naphthyridin-4-yl)-N′-(4-phenyl-1-phthalazinyl)-1,4-benzenediamine], the EC50 was 0.372 µM. The same measure, in the same setting: the result for `COc1cnc2c(Oc3ccc(Nc4nnc(-c5ccc6sc(C)nc6c5)c5ccccc45)cc3)ccnc2c1` [compound 195, 4-(2-methyl-1,3-benzothiazol-5-yl)-N-(4-((7-(methyloxy)-1,5-naphthyridin-4-yl)oxy)phenyl)-1-phthalazinamine] reads 0.197 µM. For `CNC(=O)c1cc(Sc2ccc(Nc3nnc(-c4ccc(Cl)cc4)c4ccccc34)cc2)ccn1` [compound 360], the EC50 worked out at 0.413 µM. With `c1ccc(-c2nnc(Nc3ccc(Sc4ccnc5ccccc45)cc3)c3ccccc23)cc1` [compound 310], the EC50 is 0.011 µM. Same read-out and setting: the result for `COc1cnc2c(Sc3ccc(Nc4nnc(-c5ccc6c(c5)OCO6)c5ccccc45)cc3F)ccnc2c1` [compound 522] reads 0.001 µM; that for `Clc1ccc(-c2nnc(Nc3ccc(Cn4cnc5ccccc54)cc3)c3ccccc23)cc1` [compound 341], ≥ 1.2 µM; that for `N#Cc1ccc2c(Oc3ccc(Nc4nnc(-c5ccc(Cl)cc5)c5ccccc45)cc3)ccnc2c1` [compound 242], 0.019 µM. The same measure, in the same setting: the result for `Cc1csc(-c2nnc(Nc3ccc(Sc4ccnc5cc[nH]c45)cc3)c3ccccc23)c1` [compound 464] reads 0.001 µM; that for `COCCNc1nnc(Nc2ccc(Sc3ccnc4cc(OC)cnc34)cc2)c2ccccc12` [compound 533], 0.062 µM. Same read-out and setting: the result for `COc1cnc2c(Oc3ccc(Nc4nnc(-c5ccc(OC)c(F)c5)c5ccccc45)cc3)ccnc2c1` [compound 227] reads 0.061 µM; that for `COc1cnc2c(Oc3ccc(Nc4nnc(-c5ccccc5)c5ccccc45)cn3)ccnc2c1` [Example 41, N-(6-(7-methoxy-1,5-naphthyridin-4-yloxy)pyridin-3-yl)-4-phenylphthalazin-1-amine], 0.195 µM.

The assay is the same for the next values; noted with them: Homo sapiens, HeLa, HeLa cells, average, read-out: 24h_4NPloidy EC50_IP (uM Avg).
For `Oc1cnc2c(Oc3ccc(Nc4nnc(-c5ccc(Cl)cc5)c5ccccc45)cc3)ccnc2c1` [Example 409, 8-(4-(4-(4-Chlorophenyl)phthalazin-1-ylamino)phenoxy)-1,5-naphthyridin-3-ol], the EC50 turned out to be 0.032 µM.
